Results reported in US7700584B2 (Hangzhou Minsheng Pharmaceuticals Co., Ltd., priority 2004, dated 2010).
Values after ≈ are worked out from the molar mass of the structure shown. Read-outs that look alike come from different tables or passages of the source.

Key:
[1] = test system: eight selected tumor cell lines; test: In vitro anti-tumor IC50, summary over the selected tumor cell lines; format: cell-based
Experimental: (1) Single cell suspension was seeded into 96-well plates (the cells was diluted in the PRMI-1640 minimum medium to 3×10^4 cells/ml, […] diluted cells/well). […] The experiments were performed in quadruplicate.
(2) The medium was removed. Solutions of the anti-tumor agents (50 compounds) were prepared in a freshly prepared medium at serial concentrations. […] of the solution was added into each well. Incubation was continued for 48 hours.
(3) 20 ug of 2 mg/ml MTT was added into each well, and incubated for 4 hours.
(4) The medium was removed from the well. The microplates were swiftly turned down to throw-off the medium. […] of DMSO was added into each well, and vortexed at room temperature for 10 minutes.
(5) OD value (λ=570 nm) was measured with an Enzyme-Linked Detector.
(6) The graph of cell vitality was plotted, and IC50 was calculated.

[2] = test system: MCF-7 human mammary adenocarcinoma; test: In vitro inhibition rate to tumor cells (MTT), MCF-7; format: cell-based; conditions: for inhibition at 50 µg/mL: Homo sapiens
[3] = test system: U-937 human histocytic lymphoma; test: In vitro inhibition rate to tumor cells (MTT), U-937; format: cell-based; conditions: for inhibition at 50 µg/mL: Homo sapiens
[4] = test system: Hela human cervical carcinoma; test: In vitro anti-tumor IC50 (MTT), Hela; format: cell-based; conditions: Homo sapiens, HeLa; Table 4; read-out: IC50 (ug/ml) against tumor cell lines, Hela
[5] = test system: Hela human cervical carcinoma; test: In vitro inhibition rate to tumor cells (MTT), Hela; format: cell-based; conditions: for inhibition at 50 µg/mL: Homo sapiens, HeLa
[6] = test system: Bel-7402 human hepatic carcinoma; test: In vitro inhibition rate to tumor cells (MTT), Bel-7402; format: cell-based; conditions: for inhibition at 50 µg/mL: Homo sapiens
HepG2 cells = test: Cell status of HepG2 cells treated with sample (HBV screening); format: cell-based; conditions: 200 μg/ml, HepG2, four days after infection
MDCK (dog kidney) cells = test: Toxicity TC50 of the samples in MDCK cells (influenza screening); conditions: concentration of 50% toxicity, given as dilution of the stock solution
Hepatitis B virus (HBV) = format: cell-based; conditions: 200 μg/ml
[7] = MCF7, 50 μg/ml, Table 1, read-out: inhibition rate, Results (%) MCF-7
[8] = MCF7, 50 μg/ml, Table 2 (repeated screening), read-out: inhibition rate, Results (%) MCF-7
[9] = U-937, 50 μg/ml, Table 1, read-out: inhibition rate, Results (%) U-937
[10] = U-937, 50 μg/ml, Table 2 (repeated screening), read-out: inhibition rate, Results (%) U-937
[11] = 50 μg/ml, Table 1, read-out: inhibition rate, Results (%) Hela
[12] = 50 μg/ml, Table 2 (repeated screening), read-out: inhibition rate, Results (%) Hela
[13] = Bel-7402, 50 μg/ml, Table 1, read-out: inhibition rate, Results (%) Bel-7402
[14] = Bel-7402, 50 μg/ml, Table 2 (repeated screening), read-out: inhibition rate, Results (%) Bel-7402
[15] = 50 μg/ml, Table 3 (repeated screening)

Structure (SMILES)	inhibition at 50 µg/mL [2, 7] [%]	inhibition at 50 µg/mL [2, 8] [%]	inhibition at 50 µg/mL [3, 9] [%]	inhibition at 50 µg/mL [3, 10] [%]	IC50 [4] [µg/mL]	inhibition at 50 µg/mL [5, 11] [%]	inhibition at 50 µg/mL [5, 12] [%]	inhibition at 50 µg/mL [6, 13] [%]	inhibition at 50 µg/mL [6, 14] [%]	further results
CC(C)C1CC23OC1(O)CC(=CN1CCNCC1)C2CCC3C (stereo not shown) [Compound 7, Curcumol piperazine]	88.3	85	93	90	0.6 (≈ 1.87 µM)	90.4	89.3	55.4	60.2	activity to Hela, U-937 and HL-60 cell lines (in words) ([1]; Hela and U-937, also U-937 and HL-60 cell lines): excellent activity; inhibition at 50 µg/mL ([2]; MCF7, 50 μg/ml, Table 3 (repeated screening), read-out: inhibition rate, Results (%) MCF-7): 84.1%; inhibition at 50 µg/mL ([3]; U-937, 50 μg/ml, Table 3 (repeated screening), read-out: inhibition rate, Results (%) U-937): 91.2%; inhibition at 50 µg/mL ([5]; 50 μg/ml, Table 3 (repeated screening), read-out: inhibition rate, Results (%) Hela): 89.1%; inhibition at 50 µg/mL ([6]; Bel-7402, 50 μg/ml, Table 3 (repeated screening), read-out: inhibition rate, Results (%) Bel-7402): 65.2%
CC(C)C1CC23OC1(O)C/C(=C\Nc1ccc(O)cc1)C2CCC3C (stereo not shown) [Compound 5, Curcumol p-hydroxy aniline]		91		95.6	0.32 (≈ 0.932 µM)		92.3		81.5	inhibitory effect to all the eight selected tumor cell lines (in words) ([1]; all eight cell lines): strong inhibitory effect; inhibition rate, Results (%) MCF-7 [2, 15]: 95.53%; inhibition at 50 µg/mL ([2]; MCF7, read-out: inhibition rate, Results (%) MCF-7, 50 μg/ml, Table 1): 90.3%; inhibition rate, Results (%) U-937 [3, 15]: 91.03%; inhibition at 50 µg/mL ([3]; U-937, read-out: inhibition rate, Results (%) U-937, 50 μg/ml, Table 1): 94%; inhibition rate, Results (%) Hela [5, 15]: 94.55%; inhibition at 50 µg/mL ([5]; read-out: inhibition rate, Results (%) Hela, 50 μg/ml, Table 1): 94.4%; inhibition rate, Results (%) Bel-7402 [6, 15]: 78.97%; inhibition at 50 µg/mL ([6]; Bel-7402, read-out: inhibition rate, Results (%) Bel-7402, 50 μg/ml, Table 1): 80.2%
C=C1CC2(OC(=O)C(C)C)OC3(CC2C(C)C)C(C)CCC13 (stereo not shown) [Compound 3, Curcumol isobutyrate]	32.1	22.4	91.7	93		69.2	70.2	14.4	11	Cell status (HepG2 cells): Normal; TC50 (MDCK (dog kidney) cells): 1/8403 of the stock solution; (Value of the positive control - Measured Value) Value of the positive control × 100% (Hepatitis B virus (HBV); decrease of HBeAg relative to positive control): −36.1502%; OD450 of HBeAg (Hepatitis B virus (HBV); supernatant four days after infection, positive control 1.917, negative 0.057): 2.61
